Values joined by “and” are separate entries in the source; they are usually repeats but may differ in a detail not shown here. Identical values can stand only once.
Experiment: Shake-flask solubility with spectrophotometric measurement in aqueous DES mixtures
Assay type: physicochemical
Settings: for Increase in the solubility compared to the neat DES: 25 °C
Procedure: In order to determine the solubility of the three studied phenolic acids in deep eutectic solvents, a very well-established shake-flask method coupled with spectrophotometric measurements was utilized. The initial procedure involved the preparation of various DESs, which was conducted by mixing their HBA and HBD counterparts in a glass vessel and heating the composition until the formation of a transparent, uniform liquid. […] For additional measurements, the DESs were mixed with water in varying proportions, creating aqueous DES systems. Saturated solutions of CAF, SYR, and COU were obtained by adding excess amounts of these compounds to test tubes containing either a neat deep eutectic solvent or its aqueous solution. Such samples were placed in the Orbital Shaker Incubator ES-20/60 from Biosan (Riga, Latvia) and heated for 24 h at 25 °C, 30 °C, 35 °C, and 40 °C (±0.1 °C) with simultaneous mixing at 60 rpm. Before measurements, the samples were filtered using a PTFE syringe filter from Qpore (Dallas, TX, USA) with a 0.22 μm pore size. In order to avoid possible precipitation of the saturated solutions at decreased temperatures, the test tubes, syringes, pipette tips, and filters were kept at a temperature identical to that of the samples. The spectrophotometric measurements required the preparation of calibration curves for the three APIs. This involved the preparation of a stock solution of each compound in methanol, which was later successfully diluted, and the obtained solutions of varying concentrations were measured using an A360 spectrophotometer from AOE Instruments (Shanghai, China). The wavelength range was set to 200-500 nm, and the resolution was 1 nm. The analytical wavelengths were determined to be 324 nm for caffeic acid, 273 nm for syringic acid, and 308 nm for p-coumaric acid. The final regression equations, obtained after averaging three distinct sets of measurements, are collected in Table 2 together with determination coefficients and limits of detection (LOD) and quantification (LOQ) for the calibration curves. The measurements of the samples were conducted with the same spectrophotometer and identical settings. Methanol was used for the dilution of the samples so that they could remain within the linearity range of the method. Complete spectra of the samples were recorded, but for the solubility determination, the absorbance values at a specific analytical wavelength were considered. These values were combined with the corresponding regression equations of the calibration curves and served for the calculation of the concentration of the three phenolic acids in the studied samples. The densities of such samples were also measured, and for this task 1 mL of each sample was weighed to a precision of 0.1 mg using an AS 110 R2.PLUS analytical balance from […] (Radom, Poland). The obtained densities enabled the calculation of mole fractions of CAF, SYR, and COU dissolved in the studied DESs. For each considered system, three distinct measurements were conducted, and the results were averaged.

- Mole fraction solubility (Bet – TEG 1:2 + water, x*DES 0.9, 30°C): 0.0941±0.0005 mole fraction
- Mole fraction solubility (Bet – TEG 1:2 + water, x*DES 0.9, 35°C): 0.1123±0.0012 mole fraction
- Mole fraction solubility (Bet – TEG 1:2 + water, x*DES 0.9, 40°C): 0.1364±0.0011 mole fraction
- Mole fraction solubility (Bet – TEG 1:2, x*DES 1.0 (neat DES), 25°C): 0.0755±0.0010 mole fraction
- Mole fraction solubility (Bet – TEG 1:2, x*DES 1.0 (neat DES), 30°C): 0.0844±0.0011 mole fraction
- Mole fraction solubility (Bet – TEG 1:2, x*DES 1.0 (neat DES), 35°C): 0.0989±0.0012 mole fraction
- Mole fraction solubility (Bet – TEG 1:2, x*DES 1.0 (neat DES), 40°C): 0.1215±0.0012 mole fraction
- Increase in the solubility compared to the neat DES (Bet-TEG 1:2, x*DES = 0.9 (xwater = 0.1)): 9%
- Mole fraction solubility (ChCl – TEG 1:2 + water, x*DES 0.1, 25°C): 0.0098±0.0001 mole fraction
- Mole fraction solubility (ChCl – TEG 1:2 + water, x*DES 0.1, 30°C): 0.0125±0.0001 mole fraction
- Mole fraction solubility (ChCl – TEG 1:2 + water, x*DES 0.1, 35°C): 0.0162±0.0001 mole fraction
- Mole fraction solubility (ChCl – TEG 1:2 + water, x*DES 0.1, 40°C): 0.0211±0.0001 mole fraction
- Mole fraction solubility (ChCl – TEG 1:2 + water, x*DES 0.2, 25°C): 0.0184±0.0002 mole fraction
- Mole fraction solubility (ChCl – TEG 1:2 + water, x*DES 0.2, 30°C): 0.0233±0.0002 mole fraction
- Mole fraction solubility (ChCl – TEG 1:2 + water, x*DES 0.2, 35°C): 0.0321±0.0001 mole fraction
- Mole fraction solubility (ChCl – TEG 1:2 + water, x*DES 0.2, 40°C): 0.0432±0.0002 mole fraction
- Mole fraction solubility (ChCl – TEG 1:2 + water, x*DES 0.3, 25°C): 0.0292±0.0002 mole fraction
- Mole fraction solubility (ChCl – TEG 1:2 + water, x*DES 0.3, 30°C): 0.0366±0.0003 mole fraction
- Mole fraction solubility (ChCl – TEG 1:2 + water, x*DES 0.3, 35°C): 0.0492±0.0002 mole fraction
- Mole fraction solubility (ChCl – TEG 1:2 + water, x*DES 0.3, 40°C): 0.0665±0.0004 mole fraction
- Mole fraction solubility (ChCl – TEG 1:2 + water, x*DES 0.4, 25°C): 0.0381±0.0003 mole fraction
- Mole fraction solubility (ChCl – TEG 1:2 + water, x*DES 0.4, 30°C): 0.0481±0.0003 mole fraction
- Mole fraction solubility (ChCl – TEG 1:2 + water, x*DES 0.4, 35°C): 0.0652±0.0003 mole fraction
- Mole fraction solubility (ChCl – TEG 1:2 + water, x*DES 0.4, 40°C): 0.0893±0.0002 mole fraction
- Mole fraction solubility (ChCl – TEG 1:2 + water, x*DES 0.5, 25°C): 0.0491±0.0004 mole fraction
- Mole fraction solubility (ChCl – TEG 1:2 + water, x*DES 0.5, 30°C): 0.0612±0.0003 mole fraction
- Mole fraction solubility (ChCl – TEG 1:2 + water, x*DES 0.5, 35°C): 0.0841±0.0005 mole fraction
- Mole fraction solubility (ChCl – TEG 1:2 + water, x*DES 0.5, 40°C): 0.1208±0.0009 mole fraction
- Mole fraction solubility (ChCl – TEG 1:2 + water, x*DES 0.6, 25°C): 0.0593±0.0005 mole fraction
- Mole fraction solubility (ChCl – TEG 1:2 + water, x*DES 0.6, 30°C): 0.0754±0.0003 mole fraction
- Mole fraction solubility (ChCl – TEG 1:2 + water, x*DES 0.6, 35°C): 0.1040±0.0006 mole fraction
- Mole fraction solubility (ChCl – TEG 1:2 + water, x*DES 0.6, 40°C): 0.1464±0.0014 mole fraction
- Mole fraction solubility (ChCl – TEG 1:2 + water, x*DES 0.7, 25°C): 0.0715±0.0007 mole fraction
- Mole fraction solubility (ChCl – TEG 1:2 + water, x*DES 0.7, 30°C): 0.0924±0.0007 mole fraction
- Mole fraction solubility (ChCl – TEG 1:2 + water, x*DES 0.7, 35°C): 0.1254±0.0014 mole fraction
- Mole fraction solubility (ChCl – TEG 1:2 + water, x*DES 0.7, 40°C): 0.1718±0.0012 mole fraction
- Mole fraction solubility (ChCl – TEG 1:2 + water, x*DES 0.8, 25°C): 0.0827±0.0009 mole fraction
- Mole fraction solubility (ChCl – TEG 1:2 + water, x*DES 0.8, 30°C): 0.1080±0.0013 mole fraction
- Mole fraction solubility (ChCl – TEG 1:2 + water, x*DES 0.8, 35°C): 0.1418±0.0015 mole fraction
- Mole fraction solubility (ChCl – TEG 1:2 + water, x*DES 0.8, 40°C): 0.1910±0.0018 mole fraction
- Mole fraction solubility (ChCl – TEG 1:2 + water, x*DES 0.9, 30°C): 0.1116±0.0017 mole fraction
- Mole fraction solubility (ChCl – TEG 1:2 + water, x*DES 0.9, 35°C): 0.1479±0.0013 mole fraction
- Mole fraction solubility (ChCl – TEG 1:2 + water, x*DES 0.9, 40°C): 0.1964±0.0019 mole fraction
- Mole fraction solubility (ChCl – TEG 1:2, x*DES 1.0 (neat DES), 25°C): 0.0835±0.0010 mole fraction
- Mole fraction solubility (ChCl – TEG 1:2, x*DES 1.0 (neat DES), 30°C): 0.1032±0.0014 mole fraction
- Mole fraction solubility (ChCl – TEG 1:2, x*DES 1.0 (neat DES), 35°C): 0.1364±0.0007 mole fraction
- Mole fraction solubility (ChCl – TEG 1:2, x*DES 1.0 (neat DES), 40°C): 0.1928±0.0017 mole fraction
- Increase in the solubility compared to the neat DES (ChCl-TEG 1:2, x*DES = 0.9 (xwater = 0.1)): 2%
- Solubility increase between 25 °C and 40 °C (neat DES (x*DES = 1.0) involving betaine (Bet-TEG 1:2)): 161%
- Solubility increase between 25 °C and 40 °C (neat DES (x*DES = 1.0) with choline chloride (ChCl-TEG 1:2)): 231%
SMILES: O=C(O)C=Cc1ccc(O)c(O)c1 [caffeic acid, 3,4-dihydroxycinnamic acid]
- Mole fraction solubility (ChCl – TEG 1:2 + water, x*DES 0.9, 25°C): 0.0851 mole fraction and 0.0851±0.0005 mole fraction
